From paper PMC2941991 (ACS chemical biology, 2009)

Biological target: T1, T877A full-length androgen receptor mutant (Homo sapiens, UniProt P10275, T878A)
T1 sequence (P10275 1-920 T878A): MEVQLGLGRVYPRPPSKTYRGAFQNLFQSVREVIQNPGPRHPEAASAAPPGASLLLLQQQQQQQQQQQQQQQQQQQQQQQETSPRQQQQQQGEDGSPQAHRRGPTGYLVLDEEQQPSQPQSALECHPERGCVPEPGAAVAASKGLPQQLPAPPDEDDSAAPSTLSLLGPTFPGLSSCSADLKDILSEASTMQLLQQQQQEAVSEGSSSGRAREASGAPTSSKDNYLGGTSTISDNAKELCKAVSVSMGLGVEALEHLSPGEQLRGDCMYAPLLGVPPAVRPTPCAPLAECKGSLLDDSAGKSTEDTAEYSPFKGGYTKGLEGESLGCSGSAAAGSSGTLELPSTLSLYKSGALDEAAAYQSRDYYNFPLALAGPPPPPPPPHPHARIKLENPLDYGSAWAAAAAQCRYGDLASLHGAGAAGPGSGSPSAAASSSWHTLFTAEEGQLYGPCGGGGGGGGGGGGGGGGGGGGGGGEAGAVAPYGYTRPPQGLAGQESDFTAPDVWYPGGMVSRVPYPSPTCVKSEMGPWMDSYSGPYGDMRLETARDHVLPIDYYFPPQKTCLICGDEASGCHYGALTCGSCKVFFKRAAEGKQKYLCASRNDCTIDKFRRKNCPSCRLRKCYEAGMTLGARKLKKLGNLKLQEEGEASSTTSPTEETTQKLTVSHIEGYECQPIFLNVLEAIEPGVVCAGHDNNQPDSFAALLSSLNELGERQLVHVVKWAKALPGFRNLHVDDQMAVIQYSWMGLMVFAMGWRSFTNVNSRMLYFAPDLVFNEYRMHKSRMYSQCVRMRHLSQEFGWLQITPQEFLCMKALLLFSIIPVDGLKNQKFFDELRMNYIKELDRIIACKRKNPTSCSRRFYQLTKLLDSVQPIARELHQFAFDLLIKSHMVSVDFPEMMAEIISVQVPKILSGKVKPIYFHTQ
Test: Luciferase reporter gene assay, full-length AR with the LNCaP mutation
Assay type: cell-based

## CC(C)(O)C(=O)Nc1ccc([N+](=O)[O-])c(C(F)(F)F)c1 [OH-Flu, 2-hydroxyflutamide]
  Agonist or antagonist action on the AR T877A mutant: act as agonists
